Results published in patent publication EP0059057A1 (priority 1981, dated 1982).
Where two headings read alike, the source gives them in different places.

Key:
[1] = tested on: culture filtrate prepared from an enteropathogenic strain of E. coli; format: in vivo; settings: infant mice
[2] = tested on: culture filtrate prepared from an enteropathogenic strain of E. coli; settings: piglets; for Mean Scour Score ± SEM drug treated: score 0 - 3
[3] = tested on: Heat stable E. coli enterotoxin from E. coli strain pl6; settings: 100 µg/kg
[4] = 1 mg/kg p.o., 45 mins prior to challenge
[5] = 5 mg/kg p.o., 45 mins prior to challenge
[6] = 10 mg/kg p.o., 45 mins prior to challenge
[7] = 20 mg/kg p.o., 45 mins prior to challenge
[8] = 100 mg/kg p.o., 45 mins prior to challenge
[9] = 1 mg/kg po., duration of test 6 h
[10] = 1 mg/kg po., duration of test 12 h
[11] = 10 mg/kg po., duration of test 12 h
[12] = 2 x 5 mg/kg po., duration of test 12 h

C[C@H](N)[C@H](O)c1cccc(O)c1 [Metoraminol]
% Inhibition ([1]; 200 mg/kg p.o., 45 mins prior to challenge): 45%

CNCC(O)c1ccc(O)c(O)c1.O=C(O)C(O)C(O)C(=O)O (stereo not shown) [Adrenaline Bitartrate]
% Inhibition [1, 4]: 37% | % Inhibition [1, 5]: 36% | % Inhibition [1, 6]: 58% | % Inhibition [1, 7]: 70% | % Inhibition [1, 8]: 96% | % Inhibition of Scour [2, 9]: 11% | Mean Scour Score ± SEM drug treated [2, 9]: 2.0 ± 0.2 | % Inhibition of Scour [2, 10]: 16% | Mean Scour Score ± SEM drug treated [2, 10]: 1.8 ± 0.1 | % Inhibition of Scour [2, 11]: 98% | Mean Scour Score ± SEM drug treated [2, 11]: 0 ± 0 | % Inhibition of Scour [2, 12]: 96% | Mean Scour Score ± SEM drug treated [2, 12]: 0.1 ± 0.1

NC[C@H](O)c1ccc(O)c(O)c1 [Noradrenaline]
% Inhibition ([1]; 10 mg/kg p.o., in 6mM ascorbate): 40%

CNCC(O)c1ccc(O)c(O)c1 (stereo not shown) [Adrenaline]
% Inhibition ([1]; 0.5 mg/kg p.o., 45 mins prior to challenge): 8% | % Inhibition [1, 4]: 18% | % Inhibition [1, 5]: 54% | % Inhibition [1, 6]: 54% | % Inhibition [1, 7]: 69% | % Inhibition [1, 8]: 101% | Secretion/(ml/30 min) (mean ± SEM [n=10) ([3]; time 0-30 min after toxin (before drug; drug administered 30 min after toxin)): 31 ± 3 ml/30 min | Secretion/(ml/30 min) (mean ± SEM [n=10) ([3]; time 30-60 min after toxin): 10 ± 1 ml/30 min | Secretion/(ml/30 min) (mean ± SEM [n=10) ([3]; time 60-90 min after toxin): 8 ± 2 ml/30 min | Secretion/(ml/30 min) (mean ± SEM [n=10) ([3]; time 90-120 min after toxin): 6 ± 2 ml/30 min | Secretion/(ml/30 min) (mean ± SEM [n=10) ([3]; time 120-150 min after toxin): 8 ± 3 ml/30 min | Secretion/(ml/30 min) (mean ± SEM [n=10) ([3]; time 150-180 min after toxin): 7 ± 2 ml/30 min | Secretion/(ml/30 min) (mean ± SEM [n=10) ([3]; time -30-0 min after toxin (before toxin and drug)): 3 ± 1 ml/30 min
